Laboratory results: patent EP0565593B1, “REDUCING PESTICIDAL INTERACTIONS IN CROPS” (priority 1990, dated 1992)
Like-named read-outs stand apart in the source and are kept apart here.

Tests used:
Corn = experiment: Multi-crop greenhouse test, herbicide POE (Examples 62-64; Tables 61-63); type: in vivo; conditions: COUNTER 15G and BEACON; Example 62
Protocol: Tests according to this invention in various crops indicate widespread application of the invention. In Examples 62-66 below are described tests with a variety of herbicides contacted with COUNTER® 15G in the presence and absence of MON-7400 (Antidote No. 12); MON-13900 (No. 1); MON-4660 (No. 16) and flurazole (No. 16). Those tests were conducted according to Procedures IV or V described above and illustrated further in other foregoing examples. Plants used in all tests were, for crops (as abbreviated in parentheses); cotton (COTT); soybean (SOBE); CORN, grain sorghum (GRSO); wheat (WHEA) and RICE, and the weeds giant foxtail (GIFT) and velvetleaf (VELE). The data in the tables below represent averages of two replications.
In this test the crops and weeds were planted 1.3 cm deep in 13.7 cm X 27.7 cm pans containing Dupo silt loam soil. The test safeners were applied in acetone solution and COUNTER 15G as dry granules to soil cover layers and incorporated by shaking in a bag. Treated cover layers were placed on seeded pans which were transferred to greenhouse benches and subirrigated. Herbicide was applied POE six (6) days after PPI initiation and observations of plant injury made ten (10) days later; results are shown in Table 61. The herbicide used in this example was BEACON (No. 8).
The test procedure described in Example 62 was repeated using ACCENT® (Herbicide No. 7) as the herbicide; the biocide and safeners were the same.

Velvetleaf (VELE) = experiment: Greenhouse test Procedure VII (same examples); type: in vivo, Abutilon theophrasti
Source text: (§1) This procedure describes interaction among herbicide, biocide and antidote when the biocide and the antidote is applied to a soil furrow containing crop seed before emergence of the crop and the herbicide is applied after emergence of the crop and weeds. The soil and planting depth was described in Procedure IV. The containers for comparison, the biocide and antidote applications to soil furrows were described in Procedure VI. In this procedure, the seed beds of the first, second, third and fourth containers are covered by soil layers not treated with herbicide. The containers were then placed on a bench in a greenhouse and subirrigated as required for the duration of the test. The herbicide, dispersed or dissolved in water containing 0.25% v/v nonionic surfactant (X-77) was applied by a track sprayer (187 L/ha) to the emerged plants of the second, third and fourth containers about five days after planting. All treatments were run in duplicate. Plant response was observed according to Procedure IV. Variations in this procedure will be noted in the examples.
In this example, tests were conducted according to Procedure VII for the POE application of the herbicides following in-furrow application of COUNTER® 15G insecticide (BIOCIDE No. 1) and the antidote on the pre-planted test seeds. In this test, the herbicides were Nos. 1 (MON-12000), 10 (ALLY®) and #4 (HARMONY®) and the Antidote Nos. 1, 7, 12 and 33.
These in-furrow treatments comprised a 50-50 mix of blended granules of COUNTER with and without 5G granular antidotes at 7.4 + 7.4 mg/cm or 1.1 + 0.37 mg active ingredient (a.i.)/cm. The in-furrow initiation of the test was followed five (5) days later with POE application of the herbicides; observations were made eight (8) days later. Table 38 […]

Giant foxtail (GIFT) = experiment: Greenhouse test Procedure VII (same examples); type: in vivo
Source text: as §1
In these tests (according to Procedure VII) the safeners in solution with acetone were applied in furrow to the soil, followed by COUNTER 15G granules at 227 g/305 m (8 oz./1000'). Applications were made in alternate rows in two separate 13.7 cm x 27.7 cm pans containing Dupo silt loam. Pans were seeded 1.3 cm deep, placed on benches in a greenhouse and subirrigated. BEACON was formulated in water with 0.25% v/v X-77 surfactant and applied by track sprayer at a rate of 187 L/Ha (20 gal/A). Weed species in this test were giant foxtail, shattercane and velvetleaf. The herbicide was applied five (5) days after PPI initiation and observation of test result (shown in Table 47) made eight (8) days later.
In Table 47 COUNTER 15G is abbreviated as "C" and the antidotes as "A" in the column headings which indicate the "C + A" ratios used in the tests. Control and COUNTER treatments are average of four (4) replications and COUNTER + Antidote treatments, average of 2 reps.

Shattercane (SHCA) = type: in vivo
[1] = Antidote + Biocide No. 1 in furrow, Herbicide No. 1 0.14 Kg/Ha POE, 8 days after POE
[2] = Antidote + Biocide No. 1 in furrow, Herbicide No. 4 0.17 Kg/Ha POE, 8 days after POE
[3] = Antidote + Biocide No. 1 in furrow, Herbicide No. 5 0.07 Kg/Ha POE, 8 days after POE
[4] = Antidote + Biocide No. 1 in furrow, Herbicide No. 6 0.01 Kg/Ha POE
[5] = Antidote + Biocide No. 1 in furrow, Herbicide No. 7 0.56 Kg/Ha POE, 8 days after POE
[6] = Antidote + Biocide No. 1 in furrow, Herbicide No. 9 0.009 Kg/Ha POE
[7] = Antidote + Biocide No. 1 in furrow, Herbicide No. 10 0.002 Kg/Ha POE, 8 days after POE
[8] = Antidote + Biocide No. 1 in furrow, Herbicide No. 15 0.0044 Kg/Ha POE, 8 days after POE
[9] = Antidote + Biocide No. 1 in furrow, Herbicide No. 16 0.01 Kg/Ha POE
[10] = Antidote + Biocide No. 1 in furrow, Herbicide No. 18 0.0044 Kg/Ha POE
[11] = Antidote + Biocide No. 1 in furrow, Herbicide No. 19 0.28 Kg/Ha POE
[12] = Antidote + Biocide No. 1 in furrow, Herbicide No. 21 0.14 Kg/Ha POE
[13] = Antidote + Biocide No. 1 in furrow, Herbicide No. 23 0.0006 Kg/Ha POE
[14] = Herbicide No. 1 0.14 Kg/Ha POE + Biocide No. 1 in furrow, no antidote, 8 days after POE
[15] = Herbicide No. 1 0.14 Kg/Ha POE alone, 8 days after POE
[16] = Antidote 4.48 + Biocide No. 1 8.96 Kg/Ha PPI, Herb. No. 8 0.07, 5 DAP, before herbicide application
[17] = Antidote 4.48 + Biocide No. 1 8.96 Kg/Ha PPI, Herb. No. 8 0.07 POE, 13 DAP
[18] = Antidote 4.48 + Biocide No. 1 8.96 Kg/Ha PPI, Herbicide No. 7 0.28 POE, 13 days after planting
[19] = Table 14: Herbicide No. 7 (ACCENT) 0.84 Kg/Ha POE + Biocide No. 2 8.96 Kg/Ha PPI + antidote 4.48 Kg/Ha PPI, 13 days after planting, 8 days after herbicide
[20] = […], 13 days after planting, 8 days after herbicide
[21] = […], observed 10 days after herbicide application

Structure (SMILES) | % Inhibition VELE (Velvetleaf (VELE); [1]) [%] | % Inhibition VELE (Velvetleaf (VELE); [2]) [%] | % Inhibition VELE (Velvetleaf (VELE); [3]) [%] | % Inhibition VELE (Velvetleaf (VELE); [4]) [%] | % Inhibition VELE (Velvetleaf (VELE); [5]) [%] | % Inhibition VELE (Velvetleaf (VELE); [6]) [%] | % Inhibition VELE (Velvetleaf (VELE); [7]) [%] | % Inhibition VELE (Velvetleaf (VELE); [8]) [%] | % Inhibition VELE (Velvetleaf (VELE); [9]) [%] | % Inhibition VELE (Velvetleaf (VELE); [10]) [%] | % Inhibition VELE (Velvetleaf (VELE); [11]) [%] | % Inhibition VELE (Velvetleaf (VELE); [12]) [%] | % Inhibition VELE (Velvetleaf (VELE); [13]) [%] | % Inhibition GIFT (Giant foxtail (GIFT); [1]) [%] | % Inhibition GIFT (Giant foxtail (GIFT); [2]) [%] | % Inhibition GIFT (Giant foxtail (GIFT); [3]) [%] | % Inhibition GIFT (Giant foxtail (GIFT); [4]) [%] | % Inhibition GIFT (Giant foxtail (GIFT); [5]) [%] | % Inhibition GIFT (Giant foxtail (GIFT); [6]) [%] | % Inhibition GIFT (Giant foxtail (GIFT); [7]) [%] | also measured
CC1(C)OC(c2ccco2)CN1C(=O)C(Cl)Cl (stereo not shown) [Antidote No. 1, Oxazolidine, 3-(dichloroacetyl)-2,2-dimethyl-5-(2-furanyl)-] | – | – | – | – | – | – | – | – | – | – | – | – | – | – | – | – | – | – | – | – | corn injury (Corn): effectively reduced
CC1(C)OC(c2ccco2)CN1C(=O)C(Cl)Cl (stereo not shown) [compound 1] | 95 | 90 | 95 | 60 | 75 | 90 | 90 | 75 | 35 | 65 | 65 | 85 | 60 | 0 | 0 | 0 | 60 | 85 | 30 | 0 | % Inhibition VELE (Velvetleaf (VELE); [14]): 90%; % Inhibition VELE (Velvetleaf (VELE); [15]): 85%; % Inhibition GIFT (Giant foxtail (GIFT); [8]): 20%; % Inhibition GIFT (Giant foxtail (GIFT); [9]): 35%; % Inhibition GIFT (Giant foxtail (GIFT); [10]): 65%; % Inhibition GIFT (Giant foxtail (GIFT); [11]): 35%; % Inhibition GIFT (Giant foxtail (GIFT); [12]): 35%; % Inhibition GIFT (Giant foxtail (GIFT); [13]): 20%; % Inhibition GIFT (Giant foxtail (GIFT); [14]): 0%; % Inhibition GIFT (Giant foxtail (GIFT); [15]): 0%; % Inhibition 5 DAP SHCA (Shattercane (SHCA); [16]): 0%; % Inhibition 13 DAP SHCA (Shattercane (SHCA); [17]): 80%; % Inhibition SHCA (Shattercane (SHCA); [18]): 75%; % Inhibition SHCA (Shattercane (SHCA); [19]): 70%; % Inhibition SHCA (Shattercane (SHCA); [20]): 90%; % Inhibition SHCA (Shattercane (SHCA); […], observed 9 days later (Table 29)): 70%; % Inhibition SHCA (Shattercane (SHCA); […], observed 9 days later (Table 30)): 30%; % Inhibition SHCA (Shattercane (SHCA); [21]): 55%; % Inhibition 5 DAP SHCA (Shattercane (SHCA); in vivo): 20%; % Inhibition 13 DAP SHCA (Shattercane (SHCA); in vivo): 75%
COC(=O)COC(c1ccccc1)c1ccccc1 [compound 12] | 90 | 85 | 85 | 65 | 75 | 85 | 90 | 75 | 25 | 70 | 60 | 85 | 65 | 0 | 0 | 0 | 50 | 85 | 10 | 0 | % Inhibition GIFT (Giant foxtail (GIFT); [8]): 0%; % Inhibition GIFT (Giant foxtail (GIFT); [9]): 20%; % Inhibition GIFT (Giant foxtail (GIFT); [10]): 60%; % Inhibition GIFT (Giant foxtail (GIFT); [11]): 35%; % Inhibition GIFT (Giant foxtail (GIFT); [12]): 25%; % Inhibition GIFT (Giant foxtail (GIFT); [13]): 25%; % Inhibition 5 DAP SHCA (Shattercane (SHCA); [16]): 0%; % Inhibition 13 DAP SHCA (Shattercane (SHCA); [17]): 80%; % Inhibition SHCA (Shattercane (SHCA); [18]): 75%; % Inhibition 13 DAP SHCA (Shattercane (SHCA); Herb. […], 13 DAP, after herbicide application): 85%; % Inhibition SHCA (Shattercane (SHCA); [19]): 75%; % Inhibition SHCA (Shattercane (SHCA); [20]): 90%; % Inhibition SHCA (Shattercane (SHCA); […], observed 8 days later (Table 32)): 80%; % Inhibition SHCA (Shattercane (SHCA); […], observed 8 days later (Table 33)): 40%; % Inhibition SHCA (Shattercane (SHCA); [21]): 60%; % Inhibition 5 DAP SHCA (Shattercane (SHCA); in vivo): 15%; % Inhibition 13 DAP SHCA (Shattercane (SHCA); in vivo): 75%
N#CCOc1ccc(Cl)c2cccnc12 [compound 33] | 90 | 90 | 90 | 65 | 65 | 85 | 90 | 80 | 40 | 65 | 60 | 90 | 70 | 0 | 0 | 0 | 65 | 80 | 25 | 0 | % Inhibition GIFT (Giant foxtail (GIFT); [8]): 0%; % Inhibition GIFT (Giant foxtail (GIFT); [9]): 30%; % Inhibition GIFT (Giant foxtail (GIFT); [10]): 65%; % Inhibition GIFT (Giant foxtail (GIFT); [11]): 35%; % Inhibition GIFT (Giant foxtail (GIFT); [12]): 30%; % Inhibition GIFT (Giant foxtail (GIFT); [13]): 25%; % Inhibition 5 DAP SHCA (Shattercane (SHCA); [16]): 20%; % Inhibition 13 DAP SHCA (Shattercane (SHCA); [17]): 90%; % Inhibition SHCA (Shattercane (SHCA); [18]): 70%; % Inhibition SHCA (Shattercane (SHCA); [19]): 75%; % Inhibition SHCA (Shattercane (SHCA); [20]): 90%; % Inhibition SHCA (Shattercane (SHCA); [21]): 55%; % Inhibition 5 DAP SHCA (Shattercane (SHCA); in vivo): 70%; % Inhibition 13 DAP SHCA (Shattercane (SHCA); in vivo): 90%
